Read-outs that look alike come from different tables or passages of the source.

For data set [1], the system named is L 5178 Y Maus-Lyphom Zellen. The data set can be described thus: Nucleus size after cell lysis and propidium iodide staining (impulse cytophotometer). It is filed as cell-based. An excerpt:
(§1) HMT wurde zu den Kulturen in verschiedenen Konzentrationen während einer Zeitspanne von 24 Std. zugegeben. Die Populationen und das Zellvolumen wurden mit einem Zytokombgerät (System Michaelis, Mainz) entsprechend dem Coulter Counter-Prinzip bestimmt. Nach der Zellolyse mit 35 mmol/l Natriumzitrat und 0,5% Triton X 100 (Herstellerin Sigma Chemie, München), RNAse Behandlung und […] mit Propidiumjodid wurde die Kerngröße mit Hilfe eines Impulszytofotometers (FACS analizer) Firma Becton and Dickinson) gemessen.
Die Zellkulturen wurden wie unter Beispiel 1 beschrieben behandelt. Bei der Bewertung der Nucleusgröße wurde als Kontrolle die Verteilung der Kerngröße bei unbehandelten Zellen zugrunde gelegt.

Data set [2] has as its system DNA-Polymerasen. Description: Activity of DNA polymerases in the cell nucleus. Type of data set: cell-based. Particulars: no method or concentration given.
The subject of data set [3] is L 5178 Y Maus-Lyphom Zellen. Description: Inhibition of cell growth in L 5178 Y cell culture (Coulter counter principle). Type of data set: cell-based.
Excerpt: as §1, with “Die L 5178 Y Maus-Lyphom Zellen wurden in einem MEM-Spinner Medium mit 10 mmol/l HEPES Puffer, 10% fötalem Kalbserum und 100.000 Einheiten/l Penicillin/Steptomycin (Herstellerin Biocrom, Berlin) kultiviert. Bei Kultivierungsstart lagen 100.000 Zellen/ml Kulturmedium vor, wobei sich 60% der Zellen in der S-Phase befanden. HMT” for “HMT”

In data set [4] the test system is reversen Transkriptase. The data set can be described thus: Activity of reverse transcriptase in the cell nucleus. Type of data set: cell-based. The settings on record: no method or concentration given.
For data set [5], the system named is L 5178 Y Maus-Lyphom Zellen. Description: Change of cell volume in L 5178 Y cell culture (Coulter counter principle). It is filed as cell-based.
Excerpt: as §1, with “Die L 5178 Y Maus-Lyphom Zellen wurden in einem MEM-Spinner Medium mit 10 mmol/l HEPES Puffer, 10% fötalem Kalbserum und 100.000 Einheiten/l Penicillin/Steptomycin (Herstellerin Biocrom, Berlin) kultiviert. Bei Kultivierungsstart lagen 100.000 Zellen/ml Kulturmedium vor, wobei sich 60% der Zellen in der S-Phase befanden. HMT” for “HMT”

The conditions of data set [6]: cited from earlier work.

Turning to `N.N.[Cl][Pt][Cl]` [Cisplatin], the “Anzahl der Kerne mit reduzierter Nucleusgröße (%)” value in data set [1] (Cisplatin 0,5 x 10⁻⁵ g/ml Kulturvolumen) is on record as 43,51±5,62%; in data set [1] (Cisplatin 0,5 x 10⁻⁶ g/ml Kulturvolumen), 6,97±2,81%; in data set [1] (Cisplatin 1,0 x 10⁻⁶ g/ml Kulturvolumen), 9,95±3,13%; in data set [1] (Cisplatin 1,0 x 10⁻⁷ g/ml Kulturvolumen) it was 4,07±2,24%; in data set [1] (Cisplatin 2,0 x 10⁻⁶ g/ml Kulturvolumen), 18,62±4,08%.
For the compound `C1N2CN3CN1CN(C2)C3` [HMT, Methenamine], in data set [2], the “Aktivitäten der DNA-Polymerasen im Zellkern” value is “beeinträchtigt”. For the same compound, the activity at 100 µg/mL in data set [3] (Mus musculus, L5178Y, 24 h, 0,1 mg HMT/ml Kulturvolumen, 24 Std., Kontrolle = 100, read-out: Zellwachstum (%)) was determined as 8%. The activity at 20 µg/mL in data set [3] (Mus musculus, L5178Y, 24 h, 0,02 mg HMT/ml Kulturvolumen, 24 Std., Kontrolle = 100, read-out: Zellwachstum (%)) stood at 61%. The activity at 200 µg/mL in data set [3] (Mus musculus, L5178Y, 24 h, 0,2 mg HMT/ml Kulturvolumen, 24 Std., Kontrolle = 100, read-out: Zellwachstum (%)) is 6%. The activity at 50 µg/mL in data set [3] (Mus musculus, L5178Y, 24 h, 0,05 mg HMT/ml Kulturvolumen, 24 Std., Kontrolle = 100, read-out: Zellwachstum (%)) stood at 35%. For the same compound, in data set [3] (from a concentration of 1 x 10⁻³ mg/ml HMT downwards), the Zellwachstum entry is listed as “nicht mehr statistisch signifikant beeinflußt”. In addition, the “Aktivitäten der reversen Transkriptase im Zellkern” value in data set [4] is recorded as “beeinträchtigt”. The “Anzahl der Kerne mit reduzierter Nucleusgröße (%)” value in data set [1] (0,1 mg HMT/ml Kulturvolumen, kernfragmente) is given as 79,9 (kernfragmente) %; in data set [1] (0,02 mg HMT/ml Kulturvolumen, Kernfragmente) it was 1,0 (Kernfragmente) %; in data set [1] (0,2 mg HMT/ml Kulturvolumen, Kernfragmente), 81,3 (Kernfragmente) %; in data set [1] (0,05 mg HMT/ml Kulturvolumen, Kernfragmente), 25,1 (Kernfragmente) %; in data set [1] (2 x 10⁻² mg HMT/ml Kulturvolumen), 6,05+2,07%; in data set [1] (2 x 10⁻³ mg HMT/ml Kulturvolumen), 19,62±3,89%. Moreover, the “Anzahl der Kerne mit reduzierter Nucleusgröße (%)” value in data set [1] (2 x 10⁻¹² mg HMT/ml Kulturvolumen) is 25,77±4,29%; in data set [1] (2 x 10⁻¹¹ mg HMT/ml Kulturvolumen) it was 27,17±4,13%; in data set [1] (2 x 10⁻⁴ mg HMT/ml Kulturvolumen) it was 13,41±3,71%; in data set [1] (2 x 10⁻⁵ mg HMT/ml Kulturvolumen), 11,14±3,60%; in data set [1] (2 x 10⁻⁶ mg HMT/ml Kulturvolumen), 4,50±2,92%; in data set [1] (2 x 10⁻⁷ mg HMT/ml Kulturvolumen), 1,11±0,58%. The “Anzahl der Kerne mit reduzierter Nucleusgröße (%)” value in data set [1] (2 x 10⁻⁸ mg HMT/ml Kulturvolumen) is 20,86±4,07%; in data set [1] (5 x 10⁻² mg HMT/ml Kulturvolumen) it was 4,87±91,93%. Moreover, the “Kerne größenreduziert im Vergleich zu den Kontrollen” value in data set [1] (range of normal cell volume, 10⁻⁴- 10⁻¹² mg HMT/ml Kulturvolumen) was 25%. Also, the “Zellvolumen (µm³)” value was 339,06 µm³ in data set [5] (0,1 mg HMT/ml Kulturvolumen, Zellfragmente, Mittelwert); 323,75 µm³ in data set [5] (0,2 mg HMT/ml Kulturvolumen, Zellfragmente, Mittelwert); 1540,82±401,32 µm³ in data set [5] (1 x 10⁻² mg HMT/ml Kulturvolumen, Kontrolle 1470,66±390,71); 1422,27±398,09 µm³ in data set [5] (1 x 10⁻³ mg HMT/ml Kulturvolumen, Kontrolle 1470,66±390,71); 1718,16±487,10 µm³ in data set [5] (2 x 10⁻² mg HMT/ml Kulturvolumen, Kontrolle 1470,66±390,71); 1479,35±387,79 µm³ in data set [5] (2 x 10⁻³ mg HMT/ml Kulturvolumen, Kontrolle 1470,66±390,71). Further, the “Zellvolumen (µm³)” value is recorded as 1411,23±395,92 µm³ in data set [5] (2 x 10⁻¹² mg HMT/ml Kulturvolumen, Kontrolle 1470,66±390,71); 1484,77±412,43 µm³ in data set [5] (2 x 10⁻¹¹ mg HMT/ml Kulturvolumen, Kontrolle 1470,66±390,71); 1365,68±371,21 µm³ in data set [5] (2 x 10⁻⁴ mg HMT/ml Kulturvolumen, Kontrolle 1470,66±390,71); 1289,92±350,94 µm³ in data set [5] (2 x 10⁻⁵ mg HMT/ml Kulturvolumen, Kontrolle 1470,66±390,71); 1295,17±379,65 µm³ in data set [5] (2 x 10⁻⁶ mg HMT/ml Kulturvolumen, Kontrolle 1470,66±390,71); 1279,94±388,43 µm³ in data set [5] (2 x 10⁻⁷ mg HMT/ml Kulturvolumen, Kontrolle 1470,66±390,71). The “Zellvolumen (µm³)” value in data set [5] (2 x 10⁻⁸ mg HMT/ml Kulturvolumen, Kontrolle 1470,66±390,71) was 1291,81±410,11 µm³; in data set [5] (2 x 10⁻⁹ mg HMT/ml Kulturvolumen, Kontrolle 1470,66±390,71), 1292,70±398,55 µm³; in data set [5] (5 x 10⁻² mg HMT/ml Kulturvolumen, Kontrolle 1470,66±390,71), 1736,76±438,98 µm³. The Zellvolumen result in data set [5] (between 10⁻⁴ - 10⁻¹² mg/ml Kulturvolumen) is on record as “korrespondiert das Zellvolumen mit dem Zellvolumen der Kontrollen”. In addition, the “dissoziiert in Formaldehyd und Ammoniumionen” value in data set [6] (pH 5) is recorded as 20%; in data set [6] (pH 6), 6%.

(Values after patent EP0425840A2, “Use of methenamine in the treatment of viral diseases and malign neoplasies” (Jaeger, Karl-Heinz, Dr. med., priority 1989, dated 1991).)
